In patent US9695155B2, “Herbicidal substituted pyrimidinyloxy benzene compounds” (E. I. DU PONT DE NEMOURS AND COMPANY, priority 2013, dated 2017):

Assays:
bluegrass [1] = experiment: Test D preemergence; type: in vivo, Poa annua
Text: (§1) Seeds of plant species selected from bluegrass (annual bluegrass, Poa annua), blackgrass (Alopecurus myosuroides), canarygrass (littleseed canarygrass, Phalaris minor), chickweed (common chickweed, Stellaria media), galium (catchweed bedstraw, Galium aparine), bromegrass, downy (downy bromegrass, Bromus tectorum), field poppy (Papaver rhoeas), field violet (Viola arvensis), green foxtail (Setaria viridis), deadnettle (henbit deadnettle, Lamium amplexicaule), Italian ryegrass (Lolium multiflorum), kochia (Kochia scoparia), lambsquarters (Chenopodium album), oilseed rape (Brassica napus), pigweed (Amaranthus retroflexus), chamomile (scentless chamomile, Matricaria inodora), Russian thistle (Salsola kali), speedwell (bird's-eye speedwell, Veronica persica), spring barley (Hordeum vulgare), spring wheat (Triticum aestivum), wild buckwheat (Polygonum convolvulus), wild mustard (Sinapis arvensis), wild oat (Avena fatua), wild radish (Raphanus raphanistrum), windgrass (Apera spica-venti), winter barley (Hordeum vulgare), and winter wheat (Triticum aestivum) were planted into a silt loam soil and treated preemergence with test chemicals formulated in a non-phytotoxic solvent mixture which included a surfactant.
(§2) At the same time, these species were planted in pots containing Redi-Earth® planting medium (Scotts Company, 14111 Scottslawn Road, Marysville, Ohio 43041) comprising spaghnum peat moss, vermiculite, wetting agent and starter nutrients and treated with postemergence applications of the test chemicals formulated in the same manner. Plants ranged in height from 2 to 18 cm (1- to 4-leaf stage). Treated plants and controls were maintained in a controlled growth environment for 7 to 21 days after which time all species were compared to controls and visually evaluated. Plant response ratings, summarized in Table D, are based on a scale of 0 to 100 where 0 is no effect and 100 is complete control. A dash (-) response means no test result.

oilseed rape = experiment: Test D preemergence; type: in vivo, Brassica napus
Summary of the method: (§3)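 Values are 0–100 visual control ratings (0 none, 100 complete) given 7–21 days after application. Soil for preemergence was silt loam; postemergence plants stood 2–18 cm tall.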

chamomile = experiment: Test D preemergence; type: in vivo, Matricaria inodora; conditions: scale 0-100
Text: as §1, §2

speedwell = experiment: Test D preemergence; type: in vivo, Veronica persica
Summary of the method: as §3

wild buckwheat [2] = experiment: Test D preemergence; type: in vivo, Polygonum convolvulus
Summary of the method: as §3

bluegrass [3] = experiment: Test D postemergence; type: in vivo, Poa annua
Text: as §1, §2

bromegrass, downy = experiment: Test D postemergence; type: in vivo, Bromus tectorum
Text: as §1, §2

deadnettle = experiment: Test D postemergence; type: in vivo, Lamium amplexicaule
Summary of the method: as §3

Italian ryegrass = experiment: Test D postemergence; type: in vivo, Lolium multiflorum
Summary of the method: as §3

pigweed = experiment: Test D postemergence; type: in vivo, Amaranthus retroflexus
Summary of the method: as §3

wild buckwheat [4] = experiment: Test D postemergence; type: in vivo, Polygonum convolvulus
Text: as §1, §2

wild mustard = experiment: Test D postemergence; type: in vivo, Sinapis arvensis
Summary of the method: as §3

[5] = 16 g ai/ha, scale 0 (no effect) to 100 (complete control)
[6] = Postemergence, 62 g ai/ha, scale 0 to 100 (0 no effect, 100 complete control)
[7] = Postemergence, 31 g ai/ha, scale 0 to 100 (0 no effect, 100 complete control)
[8] = Postemergence, 125 g ai/ha, scale 0 to 100 (0 no effect, 100 complete control)
[9] = Postemergence, 250 g ai/ha, scale 0 to 100 (0 no effect, 100 complete control)
[10] = postemergence, 16 g ai/ha, scale 0 to 100, 0 no effect, 100 complete control
[11] = 31 g ai/ha, scale 0 to 100 (0 no effect, 100 complete control)
[12] = 62 g ai/ha, scale 0 to 100 (0 no effect, 100 complete control)
[13] = 125 g ai/ha, scale 0 to 100 (0 no effect, 100 complete control)
[14] = 250 g ai/ha, scale 0 to 100 (0 no effect, 100 complete control)

Clc1cnc(Oc2ccccc2-n2cc(Cl)cn2)nc1 [Compound 3]
80: Plant response rating, Buckwheat, Wild (wild buckwheat [4]; [9])
70: Plant response rating, Oilseed Rape (oilseed rape; 62 g ai/ha, scale 0-100) | Plant response rating, Pigweed (pigweed; 16 g ai/ha, scale 0-100) | Plant response rating, Pigweed (pigweed; [11]) | Plant response rating, Pigweed (pigweed; [12]) | Plant response rating, Pigweed (pigweed; [13])
60: Plant response rating, Buckwheat, Wild (wild buckwheat [2]; 125 g ai/ha, scale 0-100) | Plant response rating, Ryegrass, Italian (Italian ryegrass; 16 g ai/ha, scale 0-100) | Plant response rating, Buckwheat, Wild (wild buckwheat [4]; [8])
75: Plant response rating, Oilseed Rape (oilseed rape; 31 g ai/ha, scale 0-100) | Plant response rating, Mustard, Wild (wild mustard; 16 g ai/ha, scale 0-100)
100: Plant response rating, Oilseed Rape (oilseed rape; 125 g ai/ha, scale 0-100) | Plant response rating, Oilseed Rape (oilseed rape; 250 g ai/ha, scale 0-100) | Plant response rating, Speedwell (speedwell; [5]) | Plant response rating, Speedwell (speedwell; 31 g ai/ha, scale 0 (no effect) to 100 (complete control)) | Plant response rating, Speedwell (speedwell; 62 g ai/ha, scale 0-100) | Plant response rating, Speedwell (speedwell; 125 g ai/ha, scale 0-100) | Plant response rating, Speedwell (speedwell; 250 g ai/ha, scale 0-100) | Plant response rating, Buckwheat, Wild (wild buckwheat [2]; 250 g ai/ha, scale 0-100)
0: Plant response rating, Bluegrass (bluegrass [1]; [5]) | Plant response rating, Bluegrass (bluegrass [1]; 31 g ai/ha, scale 0-100) | Plant response rating, Bluegrass (bluegrass [1]; 62 g ai/ha, scale 0-100) | Plant response rating, Chamomile (chamomile; 31 g ai/ha) | Plant response rating, Chamomile (chamomile; 62 g ai/ha) | Plant response rating, Buckwheat, Wild (wild buckwheat [2]; [5]) | Plant response rating, Buckwheat, Wild (wild buckwheat [2]; 31 g ai/ha, scale 0-100) | Plant response rating, Buckwheat, Wild (wild buckwheat [2]; 62 g ai/ha, scale 0-100) | Plant response rating, Bluegrass (bluegrass [3]; [6]) | Plant response rating, Bluegrass (bluegrass [3]; [7]) | Plant response rating, Bluegrass (bluegrass [3]; [8]) | Plant response rating, Bromegrass, Downy (bromegrass, downy; [6]) | Plant response rating, Bromegrass, Downy (bromegrass, downy; [7]) | Plant response rating, Bromegrass, Downy (bromegrass, downy; [8]) | Plant response rating, Bromegrass, Downy (bromegrass, downy; [9]) | Plant response rating, Ryegrass, Italian (Italian ryegrass; [11]) | Plant response rating, Ryegrass, Italian (Italian ryegrass; [12]) | Plant response rating, Ryegrass, Italian (Italian ryegrass; [13]) | Plant response rating, Ryegrass, Italian (Italian ryegrass; [14])
35: Plant response rating, Mustard, Wild (wild mustard; [12]) | Plant response rating, Mustard, Wild (wild mustard; [13])
50: Plant response rating, Bromegrass, Downy (bromegrass, downy; [10]) | Plant response rating, Buckwheat, Wild (wild buckwheat [4]; [6]) | Plant response rating, Buckwheat, Wild (wild buckwheat [4]; [10])
40: Plant response rating, Bluegrass (bluegrass [1]; 250 g ai/ha, scale 0-100) | Plant response rating, Chamomile (chamomile; 250 g ai/ha) | Plant response rating, Bluegrass (bluegrass [3]; [10])
20: Plant response rating, Bluegrass (bluegrass [1]; 125 g ai/ha, scale 0-100) | Plant response rating, Chamomile (chamomile; 125 g ai/ha) | Plant response rating, Deadnettle (deadnettle; [14]) | Plant response rating, Mustard, Wild (wild mustard; [11])
10: Plant response rating, Oilseed Rape (oilseed rape; [5]) | Plant response rating, Bluegrass (bluegrass [3]; [9]) | Plant response rating, Deadnettle (deadnettle; 16 g ai/ha, scale 0-100) | Plant response rating, Deadnettle (deadnettle; [11]) | Plant response rating, Deadnettle (deadnettle; [12]) | Plant response rating, Deadnettle (deadnettle; [13]) | Plant response rating, Buckwheat, Wild (wild buckwheat [4]; [7])
90: Plant response rating, Pigweed (pigweed; [14])
85: Plant response rating, Mustard, Wild (wild mustard; [14])
